# Measured values from patent publication US20080076166A1, “Method For Producing Polyunsaturated Fatty Acids In Transgenic Organisms” (priority 2004, published 2008).
# Read-outs that look alike come from different tables or passages of the source.
# Assays:
# [1] = system: elongase OtElo2 (Δ6-elongase); type: cell-based, Ostreococcus tauri
# Excerpt: (§1) The Saccharomyces cerevisiae strain 334 was transformed with the vector pOTE1 or pOTE2, respectively, by electroporation (1500 V). A yeast which was transformed with the blank vector pYES2 was used as control. The transformed yeasts were selected on complete minimal dropout uracil medium (CMdum) agar plates supplemented with 2% glucose. After the selection, in each case three transformants were selected for the further functional expression.
# To express the Ot elongases, precultures consisting of in each case 5 ml of CMdum dropout uracil liquid medium supplemented with 2% (w/v) raffinose were initially inoculated with the selected transformants and incubated for 2 days at 30° C. and 200 rpm. Then, 5 ml of CMdum (dropout uracil) liquid medium supplemented with 2% raffinose and 300 μM various fatty acids were inoculated with the precultures to an OD600 of 0.05. Expression was induced by the addition of 2% (w/v) galactose. The cultures were incubated for a further 96 hours at 20° C. […]
# The substrate specificity of OtElo2 (SEQ ID NO: 1) was determined after expression and after feeding various fatty acids (Tab. 3). The substrates fed can be detected in large amounts in all of the transgenic yeasts. […]
# The yeasts which had been transformed with the vector pOTE2 were grown in minimal medium in the presence of the fatty acids stated. […] Thereafter, the FAMEs were analyzed by GLC. […]
# OtD6 + PSE1 + PtD5 = assay: Reconstitution of the PUFA biosynthesis in yeast, total fatty acids; type: cell-based; conditions: to DHGLA and DHSTA, FIG. 5
# Description: The yeast cells from the main cultures were harvested by centrifugation (100×g, 5 min, 20° C.) and washed with 100 mM NaHCO3, pH 8.0 to remove residual medium and fatty acids. The yeast cell sediments were extracted for 4 hours using chloroform/methanol (1:1). The resulting organic phase was extracted with 0.45% NaCl, dried with Na2SO4 and evaporated in vacuo. […] For the gas-chromatographic analysis, fatty acid methyl esters (FAMEs) were prepared by acid methanolysis. To this end, the cell sediments were incubated for one hour at 80° C. together with 2 ml of 1 N methanolic sulfuric acid and 2% (v/v) dimethoxypropane. The FAMEs were extracted twice with petroleum ether (PE). To remove nonderivatized fatty acids, the organic phases were washed in each case once with 2 ml of 100 mM NaHCO3, pH 8.0 and 2 ml of distilled water. Thereafter, the PE phases were dried with Na2SO4, evaporated under argon and taken up in 100 μl of PE. The samples were separated on a DB-23 capillary column (30 m, 0.25 mm, 0.25 μm, Agilent) in a Hewlett-Packard 6850 gas chromatograph equipped with flame ionization detector. The conditions for the GLC analysis were as follows: the oven temperature was programmed from 50° C. to 250° C. with a 5° C./min increment and finally 10 min at 250° C. […]
# The parameters measured were the total fatty acids.
# [2] = system: desaturase OtDes6.1 (Δ6-desaturase); type: cell-based, Ostreococcus tauri; conditions: for Activity in %: yeast transformed with pYES2-OtDes6.1, conversion rate [substrate/(substrate+product)*100], mean (n=3)
# Excerpt: as §1, with “pYES2.1-OtD6.1” for “pOTE1 or pOTE2, respectively,”
# To express the OtD6.1 desaturase, precultures consisting of in each case 5 ml of CMdum dropout uracil liquid medium supplemented with 2% (w/v) raffinose were initially inoculated with the selected transformants and incubated for 2 days at 30° C. and 200 rpm. Then, 5 ml of CMdum (dropout uracil) liquid medium supplemented with 2% raffinose and 300 μM various fatty acids were inoculated with the precultures to an OD600 of 0.05. Expression was induced by the addition of 2% (w/v) galactose. The cultures were incubated for a further 96 hours at 20° C.
# The yeast cells from the main cultures were harvested by centrifugation (100×g, 5 min, 20° C.) and washed with 100 mM NaHCO3, pH 8.0 to remove residual medium and fatty acids. The yeast cell sediments were extracted for 4 hours using chloroform/methanol (1:1). The resulting organic phase was extracted with 0.45% NaCl, dried with Na2SO4 and evaporated in vacuo. Applying thin-layer chromatography (horizontal tank, chloroform:methanol:acetic acid 65:35:8), the lipid extract was separated further into the lipid classes phosphatidylcholine (PC), phosphatidylinosotol (PI), phosphatidylserine (PS), phsophatidylethanolamine (PE) and neutral lipids (NL). The various separated spots on the thin-layer plate were scraped off. For the gas-chromatographic analysis, fatty acid methyl esters (FAMEs) were prepared by acid methanolysis. To this end, the cell sediments were incubated for one hour at 80° C. together with 2 ml of 1 N methanolic sulfuric acid and 2% (v/v) dimethoxypropane. The FAMEs were extracted twice with petroleum ether (PE). To remove nonderivatized fatty acids, the organic phases were washed in each case once with 2 ml of 100 mM NaHCO3, pH 8.0 and 2 ml of distilled water. Thereafter, the PE phases were dried with Na2SO4, evaporated under argon and taken up in 100 μl of PE. The samples were separated on a DB-23 capillary column (30 m, 0.25 mm, 0.25 μm, Agilent) in a Hewlett-Packard 6850 gas chromatograph equipped with flame ionization detector. The conditions for the GLC analysis were as follows: the oven temperature was programmed from 50° C. to 250° C. with a 5° C./min increment and finally 10 min at 250° C. (holding).
# The signals were identified by comparing the retention times with corresponding fatty acid standards (Sigma). The methodology is described for example in Napier and Michaelson, 2001, Lipids. 36(8):761-766; Sayanova et al., 2001, Journal of Experimental Botany. 52(360):1581-1585, Sperling et al., 2001, Arch. Biochem. Biophys. 388(2):293-298 and Michaelson et al., 1998, FEBS Letters. 439(3):215-218.
# The substrate specificity of OtDes6.1 was determined after expression and after feeding various fatty acids. The substrates fed can be detected in large amounts in all of the transgenic yeasts. […]
# The yeasts which had been transformed with the vector pYES2-OtDes6.1 were grown in minimal medium in the presence of the stated fatty acids. […] Thereafter, the FAMEs were analyzed via GLC. […] The activity corresponds to the conversion rate calculated using the formula [[…]].
# [3] = system: elongase OtElo1 (Δ5-elongase); type: cell-based, Ostreococcus tauri; conditions: for Conversion rate (in %): yeast transformed with pOTE1, grown in presence of the fatty acid, FAMEs by GLC, mean (n=3) ± standard deviation
# Excerpt: as §1
# To express the Ot elongases, precultures consisting of in each case 5 ml of CMdum dropout uracil liquid medium supplemented with 2% (w/v) raffinose were initially inoculated with the selected transformants and incubated for 2 days at 30° C. and 200 rpm. Then, 5 ml of CMdum (dropout uracil) liquid medium supplemented with 2% raffinose and 300 μM various fatty acids were inoculated with the precultures to an OD600 of 0.05. Expression was induced by the addition of 2% (w/v) galactose. The cultures were incubated for a further 96 hours at 20° C.
# The yeast cells from the main cultures were harvested by centrifugation (100×g, 5 min, 20° C.) and washed with 100 mM NaHCO3, pH 8.0 to remove residual medium and fatty acids. Starting with the yeast cell sediments, fatty acid methyl esters (FAMEs) were prepared by acid methanolysis. To this end, the cell sediments were incubated for one hour at 80° C. together with 2 ml of 1 N methanolic sulfuric acid and 2% (v/v) of dimethoxypropane. The FAMEs were extracted twice with petroleum ether (PE). To remove nonderivatized fatty acids, the organic phases were washed in each case once with 2 ml of 100 mM NaHCO3, pH 8.0 and 2 ml of distilled water. […]
# The substrate specificity of OtElo1 was determined after expression and after feeding various fatty acids (Tab. 2). The substrates fed can be detected in large amounts in all of the transgenic yeasts. […]
# The yeasts which had been transformed with the vector pOTE1 were grown in minimal medium in the presence of the fatty acids stated. […] Thereafter, the FAMEs were analyzed by GLC. […]
smiles,measurement,setting,value
"CC/C=C\C/C=C\C/C=C\C/C=C\CCCCC(=O)O [18:4^Δ6,9,12,15, stearidonic acid]",Conversion rate (in %),"[1]; yeast transformed with pOTE2, grown in presence of the fatty acid, FAMEs by GLC, mean (n=3) ± standard deviation",21.1%
same,Elongation of the OtDes6.1 reaction products in the presence of the Δ6-elongase PSE1,OtD6 + PSE1 + PtD5,almost quantitatively
"CCCCC/C=C\C/C=C\C/C=C\CCCCC(=O)O [18:3^Δ6,9,12, γ-linolenic acid]",Conversion rate (in %),[1],15.3%
same,Elongation of the OtDes6.1 reaction products in the presence of the Δ6-elongase PSE1,OtD6 + PSE1 + PtD5,almost quantitatively
"CCCCC/C=C\C/C=C\CCCCCCCC(=O)O [18:2^Δ9,12, linoleic acid]","Activity of OtDes6.1, in words",[2],highest activities
same,Activity in %,[2],68.7%
"CCCCC/C=C\C/C=C\C/C=C\C/C=C\CCCC(=O)O [20:4^Δ5,8,11,14, arachidonic acid]","Elongation by OtElo1, in words","[3]; Table 2, FIG. 2 and 3",capable of elongating
same,Conversion rate (in %),[3],10.8 ± 0.6%
"CC/C=C\C/C=C\C/C=C\CCCCCCCC(=O)O [18:3^Δ9,12,15, linolenic acid]",Activity in %,[2],64.6%
"CC/C=C\C/C=C\C/C=C\C/C=C\C/C=C\CCCC(=O)O [20:5^Δ5,8,11,14,17, eicosapentaenoic acid]",Conversion rate (in %),[3],46.8 ± 3.6%
"CCCCCC/C=C\CCCCCCCC(=O)O [16:1^Δ9, palmitoleic acid]","Activity of OtDes6.1, in words",[2],markedly less pronounced
same,Activity in %,[2],5.6%
